The subject of the experiment is ATXN2-luc. As to the kind of experiment: NCATS qHTS (LOPAC pilot, primary and confirmation): ATXN2-luc in S2 cells, 1536-well, Steady-Glo. Format: cell-based, human. The settings on record: for Curve Class: LOPAC library (1,280 compounds) screening optimization, signed sub-classes (-1.1, -2.2, -3 ...); for Efficacy / Hill Coef / Inf Activity / Zero Activity / Log AC50 / AC50 / Max Resp: LOPAC library screening optimization; for Efficacy / Hill Coef / Inf Activity / Zero Activity: curve-fit parameter; for Max Resp: response at highest tested concentration. As to the method: We next performed a pilot screen assay to optimize the 1536-well qHTS using S2 cells. […] Cytotoxicity was determined using a multiplexed viability assay (CellTiter-Fluor, a fluorescence-based viability assay using Gly-Phe-7-amino-4-trifluoromethylcoumarin substrate).
CellTiter-Fluor was used to determine compound effect on cell viability, and Steady-Glo was used to measure luciferase in a multiplexed assay.
The primary assay was conducted at the NCATS NIH Chemical Genomics Center laboratory. About 4 μl of S2 cell suspension in phenol red–free DMEM was dispensed into wells of 1536-well assay plates. […] Next, SteadyGlo luciferase substrate detection reagent (3 μl) was added to each well and incubated for an additional 5 min at room temperature. Luminescence was then measured on the ViewLux imager equipped with clear filters using a 2 s exposure. All screening operations were performed on a fully integrated robotic system (Kalypsys) containing one RX-130 and two RX-90 anthropomorphic robotic arms (Stäubli). Vehicle-only plates, with DMSO being pin-transferred to columns 5 to 48, were inserted uniformly at the beginning and the end of each library in order to monitor and record any shifts in assay performance.

Setting [1] is: logarithm of AC50 (negative values).
[2] abbreviates: Homo sapiens, logarithm of AC50 (negative values), read-out: Log AC50 (converted).

Values joined by “and” are separate entries in the source; they are usually repeats but may differ in a detail not shown here. Identical values can stand only once. Counter-ions that a name gives are not always drawn. Like-named read-outs stand apart in the source and are kept apart here.

Experimental findings from paper PMC9356275, “A quantitative high-throughput screen identifies compounds that lower expression of the SCA2-and ALS-associated gene ATXN2” (The Journal of Biological Chemistry, 2022) are described below.

Usually AC50 stands for the concentration at which the activity in the assay is half-maximal. Turning to `CNCC[C@H](Oc1ccc(C(F)(F)F)cc1)c1ccccc1.Cl` [MLS002153300-01], the “Curve Class” value was -2.2, the Efficacy was -72.8775, the “Hill Coef” value turned out to be 2.1211 and the “Inf Activity” value is given as -81.66. Also, the “Zero Activity” value was -8.7824 and the “Max Resp” value is given as -62.2424. For the same compound, the “Log AC50” value under setting [1] is -4.45. The AC50 (read-out: AC50) stood at 35.5 µM.
For the compound `CCc1cccc(N(C)C(N)=Nc2cccc3ccccc23)c1` [CNS-1102], the “Curve Class” value was -2.2. Also, the AC50 under setting [2] is 12.6 µM. The concentration at half-maximal activity (AC50) (Homo sapiens, read-out: AC50) is 12.6 µM. Further, the “Log AC50” value under setting [1] is -4.7. Moreover, the AC50 (read-out: AC50) stood at 20 µM.
For the compound `CNCC[C@H](Oc1ccc(C(F)(F)F)cc1)c1ccccc1` [S-(+)-Fluoxetine hydrochloride], the “Curve Class” value is listed as -2.2. For the same compound, the concentration at half-maximal activity (AC50) under setting [2] was 14.1 µM. Moreover, the AC50 (Homo sapiens, read-out: AC50) is 14.1 µM. Also, the “Log AC50” value under setting [1] is -4.8. Where the note is “read-out: AC50”, the AC50 stood at 15.8 µM.
`Br.C[C@H]1C2Cc3ccc(O)cc3[C@]1(C)CCN2CCc1ccccc1` (single isomer, unassigned; (-)) [(-)-Phenazocine hydrobromide]: the Efficacy is recorded as -71.0942 and the “Inf Activity” value is recorded as -66.3244. Besides, the AC50 under setting [2] was 35.5 µM. Also, for the setting “Homo sapiens, read-out: AC50”, the AC50 was found to be 35.5 µM.
Take `CNCCC(Oc1ccc(C(F)(F)F)cc1)c1ccccc1.Cl` (centres unmarked) [MLS001076338-01]: the “Curve Class” value is -3, the Efficacy is on record as -91.3933, the “Hill Coef” value came to 3.5722 and the “Inf Activity” value is listed as -89.6057. Besides, the “Zero Activity” value is reported as 1.7876 and the “Max Resp” value is -84.8539. In addition, the “Log AC50” value under setting [1] is reported as -4.6. The AC50 (read-out: AC50) was 25.1 µM.
With `CC(C)NC[C@@H](O)c1ccc(O)c(O)c1` [S(+)-Isoproterenol (+)-bitartrate], the Efficacy was -77.2877 and the “Inf Activity” value is -79.7998. In addition, the AC50 under setting [2] was 31.6 µM. Further, the AC50 (Homo sapiens, read-out: AC50) was 31.6 µM.
In the case of `O=C(Cc1ccc(Cl)c(Cl)c1)N1CCCCC1CN1CCCC1` (centres unmarked) [BRL 52537 hydrochloride], the Efficacy is given as -82.8908 and the “Inf Activity” value is listed as -85.8462. The AC50 under setting [2] is 35.5 µM. The AC50 (Homo sapiens, read-out: AC50) is 35.5 µM.
Regarding `CC(C)NC[C@H](O)COc1cccc2ccccc12` [(S)-Propranolol hydrochloride], the “Curve Class” value is on record as -2.2. Further, the AC50 under setting [2] was 17.8 µM. Also, the AC50 (Homo sapiens, read-out: AC50) amounted to 17.8 µM. For the same compound, under setting [1], the “Log AC50” value is given as -4.5. Also, the AC50 (read-out: AC50) stood at 31.6 µM.
Take `CC(=O)O[C@H]1C[C@H](O[C@H]2[C@@H](O)C[C@H](O[C@H]3[C@@H](O)C[C@H](OC4CC[C@@]5(C)C(CC[C@@H]6[C@@H]5CC[C@]5(C)[C@@H](C7=CC(=O)OC7)[C@@H](O)C[C@]65O)C4)O[C@@H]3C)O[C@@H]2C)O[C@H](C)[C@H]1O[C@@H]1O[C@H](CO)[C@@H](O)[C@H](O)[C@H]1O` (some centres unmarked) [Lanatoside B]: the Efficacy is -78.0523 and the “Inf Activity” value was -90.3741. Also, the AC50 under setting [2] is 1.26 µM. Besides, the AC50 (Homo sapiens, read-out: AC50) was 1.26 µM.
`CC1CNCCN1[S+](=O)([O-])c1cccc2cnccc12` (centres unmarked): the AC50 runs as follows: under setting [2], 22.4 µM; (Homo sapiens, read-out: AC50) 22.4 µM.
`COc1cc(C[C@@H](C)N)c(OC)cc1Br.Cl`: the Efficacy is on record as -71.0454 and the “Inf Activity” value is -73.0357. Besides, the AC50 under setting [2] was 39.8 µM. Besides, the AC50 (Homo sapiens, read-out: AC50) amounted to 39.8 µM.
On to `OC(CCN1CCCCC1)(c1ccccc1)C1CC2C=CC1C2` (centres unmarked) [Biperiden hydrochloride], for which the “Curve Class” value was -2.2. For the same compound, the AC50 under setting [2] is 17.8 µM. Besides, the AC50 (Homo sapiens, read-out: AC50) was 17.8 µM. The “Log AC50” value under setting [1] was -4.6. Also, the AC50 (read-out: AC50) came out at 25.1 µM.
Take `Nc1nc(=S)c2ncn([C@@H]3O[C@H](CO)[C@@H](O)[C@H]3O)c2[nH]1` [Thioguanosine]: the Efficacy is on record as -64.1845 and the “Inf Activity” value was -62.8466. The half-maximal activity concentration (AC50) under setting [2] is 3.55 µM. The AC50 (Homo sapiens, read-out: AC50) was found to be 3.55 µM.
On to `Br.COc1cc(CC(C)N)c(OC)cc1Br` (centres unmarked), for which the “Curve Class” value is -2.4, the Efficacy is -57.1187 and the “Inf Activity” value is -63.2991. In addition, the AC50 under setting [2] was 15.8 µM. Besides, the AC50 (Homo sapiens, read-out: AC50) was determined as 15.8 µM.
Turning to `C=C[C@H]1C[N@@]2CC[C@H]1C[C@H]2[C@H](O)c1ccnc2ccc(OC)cc12` [Quinine sulfate], the Efficacy was -70.489 and the “Inf Activity” value is listed as -66.665. Further, the concentration at half-maximal activity (AC50) under setting [2] was 35.5 µM. The AC50 (Homo sapiens, read-out: AC50) is 35.5 µM.
Regarding `CC(C)NCC(O)COc1cccc2ccccc12` (racemic) [(±)-Propranolol hydrochloride], the “Curve Class” value is reported as -2.2. In addition, the AC50 under setting [2] was 14.1 µM. For the setting “Homo sapiens, read-out: AC50”, the AC50 is 14.1 µM. Moreover, the “Log AC50” value under setting [1] was -4.6. The AC50 (read-out: AC50) is 25.1 µM.
For the compound `c1ccc(CN2CCC3(CCCc4ccccc43)CC2)cc1` [L-687,384 hydrochloride], the “Curve Class” value is -2.2, the Efficacy is reported as -56.3105 and the “Inf Activity” value was -51.8105. The AC50 under setting [2] is 14.1 µM. In addition, where the note is “Homo sapiens, read-out: AC50”, the AC50 worked out at 14.1 µM.
With `CNCCCC1c2ccccc2C=Cc2ccccc21` [Protriptyline hydrochloride], the Efficacy is listed as -59.559 and the “Inf Activity” value is given as -66.4303. In addition, the AC50 under setting [2] was 31.6 µM. Further, the AC50 (Homo sapiens, read-out: AC50) was 31.6 µM.
`Br.CC1C2Cc3ccc(O)cc3C1(C)CCN2CCc1ccccc1` (single isomer, unassigned; (+)) [(+)-Phenazocine hydrobromide]: the Efficacy was -59.8542 and the “Inf Activity” value is listed as -62.9667. Moreover, the AC50 under setting [2] was 17.8 µM. For the same compound, the AC50 (Homo sapiens, read-out: AC50) is 17.8 µM.
Regarding `CNCC[C@@H](Oc1ccccc1C)c1ccccc1` [Tomoxetine], the “Curve Class” value is listed as -2.2, the Efficacy is recorded as -86.2041 and the “Inf Activity” value is given as -86.6862. Moreover, the AC50 under setting [2] was 28.2 µM. The concentration at half-maximal activity (AC50) (Homo sapiens, read-out: AC50) worked out at 28.2 µM.
Take `C[C@H](N)CN1CCc2ccc(Br)cc21` [VER-3323 hemifumarate salt]: the “Curve Class” value is on record as -2.2. Under setting [2], the half-maximal activity concentration (AC50) is 11.2 µM. Also, the AC50 (Homo sapiens, read-out: AC50) was found to be 11.2 µM. In addition, the “Log AC50” value under setting [1] is on record as -4.8. Further, under “read-out: AC50”, the AC50 was determined as 15.8 µM.
With `CC[C@H](O)C(C[C@H](C)N(C)C)(c1ccccc1)c1ccccc1.Cl` [(+)-alpha-Methadol hydrochloride], the Efficacy is listed as -65.8804 and the “Inf Activity” value is -66.2609. The AC50 under setting [2] was 35.5 µM. Also, the AC50 (Homo sapiens, read-out: AC50) worked out at 35.5 µM.
For the compound `CC[C@@H](O)C(C[C@@H](C)N(C)C)(c1ccccc1)c1ccccc1.Cl` [(-)-alpha-Methadol hydrochloride], the Efficacy is reported as -53.231 and the “Inf Activity” value was -52.9785. The AC50 under setting [2] was 31.6 µM. Besides, under “Homo sapiens, read-out: AC50”, the AC50 was 31.6 µM.
As for `Oc1ccc2c3c1O[C@H]1c4[nH]c5ccccc5c4C[C@@]4(O)[C@@H](C2)N(CC2CC2)CC[C@]314` [Naltrindole hydrochloride], the “Curve Class” value is -2.2. In addition, the AC50 under setting [2] was 14.1 µM. For the same compound, the AC50 (Homo sapiens, read-out: AC50) was found to be 14.1 µM. Further, the “Log AC50” value under setting [1] is given as -4.75. Also, the AC50 (read-out: AC50) was found to be 17.8 µM.
With `COc1cc(C[C@H](C)N)c(OC)cc1Br.Cl`, the Efficacy is on record as -52.627 and the “Inf Activity” value is reported as -55.207. The AC50 under setting [2] was 28.2 µM. For the same compound, the concentration at half-maximal activity (AC50) (Homo sapiens, read-out: AC50) was 28.2 µM.
For `Clc1ccc2c(c1)C(N1CCNCC1)=Nc1ccccc1O2` [Amoxapine], the “Curve Class” value is on record as -2.2, the Efficacy is recorded as -60.2873 and the “Inf Activity” value is given as -56.594. For the same compound, the AC50 under setting [2] was 11.2 µM. Besides, the half-maximal activity concentration (AC50) (Homo sapiens, read-out: AC50) is 11.2 µM.
Turning to `CNCCC(Oc1ccc(C(F)(F)F)cc1)c1ccccc1` (centres unmarked) [Fluoxetine hydrochloride], the “Curve Class” value was -2.1. Further, the AC50 under setting [2] is 12.6 µM. Besides, the AC50 (Homo sapiens, read-out: AC50) worked out at 12.6 µM. Also, the “Log AC50” value under setting [1] was -4.85. For the same compound, for the setting “read-out: AC50”, the AC50 worked out at 14.1 µM.
Turning to `CNCCCN1c2ccccc2CCc2ccccc21` [Desipramine hydrochloride], the “Curve Class” value is on record as -2.2. Further, the AC50 under setting [2] is 12.6 µM. The AC50 (Homo sapiens, read-out: AC50) came out at 12.6 µM. For the same compound, the “Log AC50” value under setting [1] is -4.85. The half-maximal activity concentration (AC50) (read-out: AC50) amounted to 14.1 µM.
In the case of `Nc1ncnc2c1c(I)cn2[C@@H]1C[C@H](N)[C@@H](O)[C@H]1O` [A-134974 dihydrochloride hydrate], the “Curve Class” value was -2.1. Also, the AC50 under setting [2] was 10 µM. Moreover, the AC50 (Homo sapiens, read-out: AC50) amounted to 10 µM. For the same compound, the “Log AC50” value under setting [1] is reported as -4.9. For the same compound, where the note is “read-out: AC50”, the concentration at half-maximal activity (AC50) was 12.6 µM.
Take `C[C@@H]1O[C@@H](O[C@H]2C[C@@H](O)[C@]3(CO)[C@H]4[C@H](O)C[C@]5(C)[C@@H]([C@H]6COC(=O)C6)CC[C@]5(O)[C@@H]4CC[C@]3(O)C2)[C@H](O)[C@H](O)[C@H]1O` [dihydroouabain]: the “Hill Coef” value was 3.0654 and 2.7202 and 1.8851 and 1.6604.
